This passage reports Ki results from patent publication US5455255A, “2-(2,3,5,6-tetrafluoro-4-pyridyl)-1,2-benzisothiazol-3(2H)-one 1,1-dioxides and compositions and method of use thereof” (Sterling Winthrop Inc., priority 1994, dated 1995).

For orientation: Ki means a dissociation constant, usually derived from enzyme kinetics or from competition with a known ligand.

The assay deals with T1, human leukocyte elastase (Homo sapiens, UniProt P08246).
T1 sequence (P08246 30-267): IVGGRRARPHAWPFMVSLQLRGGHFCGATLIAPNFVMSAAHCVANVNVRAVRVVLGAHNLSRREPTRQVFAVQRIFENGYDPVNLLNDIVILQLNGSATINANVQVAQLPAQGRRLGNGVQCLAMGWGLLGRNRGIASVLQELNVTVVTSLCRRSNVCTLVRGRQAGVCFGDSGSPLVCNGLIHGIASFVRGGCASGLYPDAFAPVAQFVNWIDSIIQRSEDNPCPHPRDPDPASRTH
Put plainly: Human leukocyte elastase (HLE) inhibition, progress-curve assay with MeOSuc-Ala-Ala-Pro-Val-pNA. The format is biochemical. To be noted: substrate MeOSuc-Ala-Ala-Pro-Val-pNA, pH 7.8, 25° C., absorbance 410 nm, read-out: Ki (human leukocyte elastase inhibitory activity). The protocol:
The test compound (inhibitor) is dissolved in DMSO in a vial to produce an inhibitor stock solution which has a concentration in the range of 200-1000 μM. The inhibitor stock solution is diluted (1:4, 1:16 and 1:64) into assay vials (vials 1, 2 and 3 respectively) containing 2.4 mL of buffer solution (50 mM N-[2-hydroxyethyl] piperazine-N'-[2-ethanesulfonic acid]/NaOH, 500 mM NaCl, pH 7.8 at 25° C.) and DMSO is added so that the total volume in each vial is 3.2 mL. 70 μL, 50 μL, 35 μL and 25 μL of inhibitor from assay vial 1 is placed into the first four wells of a 96-well microtiter plate and each well is made up to 90 μL total volume with the addition of a 25% DMSO/buffer solution. The inhibitor from assay vials 2 and 3 is processed in a similar manner and placed in wells 5-12 respectively to afford a total of 12 different inhibitor concentrations. Four wells (wells 13-16) containing 90 μL of the 25% DMSO/buffer solution but no inhibitor are also run simultaneously with the inhibited wells as a control. 150 μL of substrate solution (prepared by the addition of 500 μL of the human leukocyte elastase (HLE) substrate MeOSuc-Ala-Ala-Pro-Val-pNA (18.7 mM in DMSO) to 19.5 mL of buffer solution) was then added simultaneously into each of the 16 wells and the solution in each well was thoroughly mixed.
The 96-well microtiter plate was placed into a Microplate Reader #89815A spectrophotometer 110 μL of the enzyme solution (prepared as follows: a mixture of 20 mL of buffer solution and 20 mg of bovine serum albumen is gently vortexed in a scintillation vial and 5 μL HLE stock solution (1 mg/mL dissolved in deionized water) is added simultaneously to each of the 16 wells. Each of the solutions in the wells is throughly mixed and then the time-dependent absorbance data is collected at an absorbance of 410 nm until the assay is complete. It should be noted that although this assay method can be done manually, it is preferred to perform the assay robotically using a Hewlett Packard MicroAssay System Robot.
A plot of the absorbance versus time data thus obtained affords progress curves the final slope of which is equal to the final steady-state velocities (VF). Using the program. ENZFITTER (Elsevier software), the progress curves for the four control assays ([I]=O) are fit by linear regression to yield the enzyme reaction velocity values in the absences of inhibitor (Vo) which are averaged to produce a single fixed value. The inhibition constant Ki (nM) is then obtained from a plot of [formula] which affords a linear plot wherein: [formula] and [S] is the concentration of the substrate and Km is the Michaelis constant.
Table IV summarizes the results obtained from the testing of representative compounds of the invention for human leukocyte elastase inhibitory activity.

As to `O=C1c2ccccc2S(=O)(=O)N1c1c(F)c(F)nc(F)c1F` [Example 1, 2-(2,3,5,6-tetrafluoro-4-pyridyl)-1,2-benzisothiazol-3(2H)-one 1,1-dioxide], the Ki turned out to be 20 nM.
Under `COc1cc(C(C)C)c2c(c1)S(=O)(=O)N(c1c(F)c(F)nc(F)c1F)C2=O` [Example 2, 4-isopropyl-6-methoxy-2-(2,3,5,6-tetrafluoro-4-pyridyl)-1,2-benzisothiazol-3(2H)-one 1,1-dioxide] stands 38 nM; under `COc1cc2c(c(C(C)C)c1OC)C(=O)N(c1c(F)c(F)nc(F)c1F)S2(=O)=O` [Example 3], 47.5 nM.
In the case of `COc1cc(OC)c2c(c1)S(=O)(=O)N(c1c(F)c(F)nc(F)c1F)C2=O` [Example 4], the Ki turned out to be 4 nM.
The value for `COc1ccc2c(c1OC)C(=O)N(c1c(F)c(F)nc(F)c1F)S2(=O)=O` [Example 5] was 15 nM; that for `CCCc1c(OC)c(OC)cc2c1C(=O)N(c1c(F)c(F)nc(F)c1F)S2(=O)=O` [Example 6] was 16 nM.
Under `COc1cccc2c1C(=O)N(c1c(F)c(F)nc(F)c1F)S2(=O)=O` [Example 7] stands 6.5 nM; under `CCOc1cccc2c1C(=O)N(c1c(F)c(F)nc(F)c1F)S2(=O)=O` [Example 8], 1.4 nM.
Under `CC(C)Oc1cccc2c1C(=O)N(c1c(F)c(F)nc(F)c1F)S2(=O)=O` [Example 9] stands 140 nM; under `COc1ccc2c(c1)S(=O)(=O)N(c1c(F)c(F)nc(F)c1F)C2=O` [Example 10A], 74 nM; under `CC(C)c1cccc2c1C(=O)N(c1c(F)c(F)nc(F)c1F)S2(=O)=O` [Example 10], 100 nM.
In the case of `CC(C)c1cc(O)cc2c1C(=O)N(c1c(F)c(F)nc(F)c1F)S2(=O)=O` [Example 11, 4-isopropyl-6-hydroxy-2-(2,3,5,6-tetrafluoro-4-pyridyl)-1,2-benzisothiazol-1,2-benzisothiazol-3(2H)-one 1,1-dioxide], the inhibition constant (Ki) came out at 2000 nM.
Turning to `CC(C)Oc1cc(C(C)C)c2c(c1)S(=O)(=O)N(c1c(F)c(F)nc(F)c1F)C2=O` [Example 12, 4-isopropyl-6-isopropoxy-2-(2,3,5,6-tetrafluoro-4-pyridyl)-1.2-benzisothiazol-3(2H)-one 1,1-dioxide], the inhibition constant (Ki) stood at 50 nM.
